We go through 1 compound from ChEMBL document CHEMBL3098055 (Bioorg Med Chem Lett, 2014).

Common to all, as to type: cell-based
Assay [1] addresses Somatostatin receptor type 5 (Homo sapiens, UniProt P35346). As to the kind of experiment: Displacement of [125I]-somatostatin from human SSTR5 expressed in CHO-K1 cells.
The target in assay [2] is Somatostatin receptor type 4 (Homo sapiens, UniProt P31391). Briefly: Displacement of [125I]-somatostatin from human SSTR4 expressed in CHO-K1 cells.
The target in assay [3] is Somatostatin receptor type 3 (Homo sapiens, UniProt P32745). As to the kind of experiment: Displacement of [125I]-somatostatin from human SSTR3 expressed in CHO-K1 cells.
Assay [4] deals with Somatostatin receptor type 2 (Homo sapiens, UniProt P30874). As to the kind of experiment: Displacement of [125I]-somatostatin from human SSTR2 expressed in CHO-K1 cells.
Assay [5] deals with Somatostatin receptor type 1 (Homo sapiens, UniProt P30872). As to the kind of experiment: Displacement of [125I]-somatostatin from human SSTR1 expressed in CHO-K1 cells.

Bridge positions count the residues as written; N and C are the ends. Square brackets hold non-standard residues; d marks the D form. Peptide text beside a SMILES is read from it. AllylGly = C=CC[C@H](N)C(=O)O

Chain of Somatostatin receptor type 1 (P30872 whole entry): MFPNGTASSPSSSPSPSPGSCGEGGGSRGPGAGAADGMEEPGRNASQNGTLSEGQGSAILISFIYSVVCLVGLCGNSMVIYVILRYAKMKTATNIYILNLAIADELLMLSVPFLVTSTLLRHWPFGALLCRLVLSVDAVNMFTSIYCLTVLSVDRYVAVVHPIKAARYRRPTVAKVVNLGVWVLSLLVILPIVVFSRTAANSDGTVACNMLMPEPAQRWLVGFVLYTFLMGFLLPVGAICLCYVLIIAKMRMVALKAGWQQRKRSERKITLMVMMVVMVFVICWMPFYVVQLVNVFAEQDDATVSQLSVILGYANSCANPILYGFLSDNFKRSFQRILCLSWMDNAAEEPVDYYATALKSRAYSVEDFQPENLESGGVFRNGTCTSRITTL
Chain of Somatostatin receptor type 5 (P35346 whole entry): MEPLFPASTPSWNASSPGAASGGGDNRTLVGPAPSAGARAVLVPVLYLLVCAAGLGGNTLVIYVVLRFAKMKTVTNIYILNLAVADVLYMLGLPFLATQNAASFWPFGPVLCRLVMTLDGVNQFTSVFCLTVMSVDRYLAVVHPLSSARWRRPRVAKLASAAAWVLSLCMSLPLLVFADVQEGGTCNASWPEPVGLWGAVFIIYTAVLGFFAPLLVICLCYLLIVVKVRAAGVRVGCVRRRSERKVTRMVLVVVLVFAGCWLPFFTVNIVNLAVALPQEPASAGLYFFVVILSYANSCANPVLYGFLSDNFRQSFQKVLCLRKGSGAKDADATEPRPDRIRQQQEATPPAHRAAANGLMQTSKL
Chain of Somatostatin receptor type 2 (P30874 whole entry): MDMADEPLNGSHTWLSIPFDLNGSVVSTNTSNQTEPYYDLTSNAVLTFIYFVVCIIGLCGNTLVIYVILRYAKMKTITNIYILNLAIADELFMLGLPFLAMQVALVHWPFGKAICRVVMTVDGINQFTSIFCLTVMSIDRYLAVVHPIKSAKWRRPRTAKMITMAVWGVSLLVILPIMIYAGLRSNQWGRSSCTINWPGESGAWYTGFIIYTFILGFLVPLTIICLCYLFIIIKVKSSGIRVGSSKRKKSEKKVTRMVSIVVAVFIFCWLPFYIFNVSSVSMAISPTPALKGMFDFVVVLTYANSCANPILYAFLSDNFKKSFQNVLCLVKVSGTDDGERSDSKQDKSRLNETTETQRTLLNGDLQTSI
Chain of Somatostatin receptor type 3 (P32745 whole entry): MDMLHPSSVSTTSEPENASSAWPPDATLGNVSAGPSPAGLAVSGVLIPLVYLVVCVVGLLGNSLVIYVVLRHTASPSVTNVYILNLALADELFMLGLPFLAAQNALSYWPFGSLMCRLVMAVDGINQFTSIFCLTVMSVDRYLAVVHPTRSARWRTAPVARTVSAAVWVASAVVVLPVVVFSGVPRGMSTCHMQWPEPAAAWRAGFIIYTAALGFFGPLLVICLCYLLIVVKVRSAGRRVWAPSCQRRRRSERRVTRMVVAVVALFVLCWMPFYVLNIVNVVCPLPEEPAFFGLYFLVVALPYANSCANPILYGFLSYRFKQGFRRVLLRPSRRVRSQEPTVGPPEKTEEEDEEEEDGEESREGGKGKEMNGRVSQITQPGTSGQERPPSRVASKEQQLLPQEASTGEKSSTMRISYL
Chain of Somatostatin receptor type 4 (P31391 whole entry): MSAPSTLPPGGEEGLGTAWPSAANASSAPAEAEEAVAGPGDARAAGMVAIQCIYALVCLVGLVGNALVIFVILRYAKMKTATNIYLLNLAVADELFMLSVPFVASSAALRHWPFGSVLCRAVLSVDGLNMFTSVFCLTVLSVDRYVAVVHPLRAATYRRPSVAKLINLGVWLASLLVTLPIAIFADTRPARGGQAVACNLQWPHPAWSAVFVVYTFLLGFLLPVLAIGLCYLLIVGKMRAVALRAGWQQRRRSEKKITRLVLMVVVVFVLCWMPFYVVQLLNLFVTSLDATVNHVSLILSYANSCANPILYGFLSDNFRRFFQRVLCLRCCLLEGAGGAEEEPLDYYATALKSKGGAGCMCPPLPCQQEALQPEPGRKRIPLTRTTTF

With `C[C@H](N)C(=O)NCC(=O)N[C@H]1C/C=C\C[C@@H](C(N)=O)NC(=O)[C@H](CO)NC(=O)[C@H]([C@@H](C)O)NC(=O)[C@H](Cc2ccccc2)NC(=O)[C@H]([C@@H](C)O)NC(=O)[C@H](CCCCN)NC(=O)[C@H](Cc2c[nH]c3ccccc23)NC(=O)[C@H](Cc2ccccc2)NC(=O)[C@H](Cc2ccccc2)NC(=O)[C@H](CC(N)=O)NC(=O)[C@H](CCCCN)NC1=O` (H-AG[AllylGly]KNFFWKTFTS[AllylGly]-NH2; staple (Z) 3-14), the Ki in assay [1] was found to be 0.2 nM; in assay [2], 1.77 nM; in assay [3], 4.24 nM; in assay [4], 0.41 nM; in assay [5], 0.31 nM.
